Source: patent US20090156669A1, “COMBINATION OF ACTIVE INGREDIENTS WITH INSECTICIDAL AND ACARICIDAL PROPERTIES” (Bayer CropScience AG, priority 2006, published 2009)

Tested on: Tetranychus urticae
Test: Tetranychus urticae test (OP-resistant, dip application)
Format: in vivo
Conditions: dip application of infested bush beans (Phaseolus vulgaris), OP-resistant spider mites
Method: Tetranychus urticae—Test (OP-Resistent, Dip Application)
To produce a suitable preparation of active compound, 1 part by weight of active compound is mixed with the stated amounts of solvent and emulsifier, and the concentrate is diluted with water to the desired concentrations.
Busch beans (Phaseolus vulgaris), which are heavily infected by the greenhouse red spider mite (Tetranychus urticae) are dipped into an active compound preparation of the desired concentration.
After the desired period of time, the kill in % is determined. 100% means that all spider mites have been killed; 0% means that none of the spider mites have been killed.

For `CC1(C)[C@H](/C=C(\Cl)C(F)(F)F)[C@@H]1C(=O)O[C@H](C#N)c1cccc(Oc2ccccc2)c1` [gamma-cyhalothrin], the “Kill in % after 6 d” value (100 ppm) was 65%.
With `Cc1cc(C)c(C2=C(OC(=O)CC(C)(C)C)C3(CCCC3)OC2=O)c(C)c1` [spiromesifen] the “Kill in % after 6 d” value (0.16 ppm) was 0%.
